Tests used:
[1] = system: chorioallantoic membrane (CAM); assay: Anti-angiogenesis CAM assay; format: in vivo, White Leghorn eggs; settings: ten eggs, 48 hours
Procedure: The dosing was effected by pipetting 40 μl of the indicated solution onto a 13 mm round Thermanox® coverslip and allowing it to air dry. After the material appeared dry, the coverslip was placed onto the chorioallantoic membrane (CAM) of each egg insuring contact of the dried test article with the CAM. After dosing, the eggs were returned to the incubator for approximately 48 hours. Following the 48 hour exposure period, the eggs were removed from the incubator, observed for viability, and the exposed area under the coverslip was examined for loss of vasculature.

caspase-3 = assay: Activation of caspases in T84 colon carcinoma cells; format: cell-based, human; settings: 10 hours
Procedure: (§1) Activities of caspase-3 and caspase-9 were measured using […] assay kits (BioVision, CA). The procedure used was essentially the same as described in the manufacturer's instruction. Briefly, 7-day-old monolayers of T 84 cells in 100 mm dishes were treated with either vehicle (as control) or N,N,-diethyl-8,8-dipropyl-2-azaspiro[4,5]decane-2-propanamine dimaleate (Compound 1) at the indicated respective concentrations for 10 hours. After the treatment, cells were washed with PBS and the cell extracts were prepared by resuspending cells in 200 μl (˜10^8 cells) of lysis buffer provided in the kit. Cell debris was removed by centrifugation at 10,000×g for 30 min. Supernatants (50-100 μg of protein) were pre-incubated with 10 mM dithiothreitol, 50 mM HEPES, 10% sucrose, 0.1% CHAPS (pH 7.5) and the reaction was started with the addition of 100 μM of the appropriate substrate (DEVD-pNA for caspase-3 and LEHD-pNA for caspase-9). The assay plates (96-well) were incubated at 37° C. for 2 hours, and the yellow color resulting from the release of pNA was measured at 405 nm using an ELISA reader. Samples were run in triplicate and results were expressed as an average of three determinations.

caspase-9 = assay: as above; format: cell-based, human; settings: 10 hours
Procedure: as §1

Various Tumor Cell Lines = assay: NCI SRB tumor cell growth assay, summary over all cell lines; format: cell-based
Procedure: (§2) An in vitro assay which tested the ability of N,N,-diethyl-8,8-dipropyl-2-azaspiro[4,5]decane-2-propanamine dimaleate (Compound 1) to inhibit the growth of known cancer cell lines was performed by the National Cancer Institute in accordance with standard procedures. See: Lin, Z. X., Hoult, J. R., and Raman, A. Sulphorhodamine B assay for measuring proliferation of a pigmented melanocyte cell line and its application to the evaluation of crude drugs used in the treatment of vitiligo. J Ethnopharmacol. 66: 141-150, 1999. Briefly, selected tumor cell lines were cultured in media containing five different concentrations of Compound 1. After 48 hours of continuous exposure, a sulforhodamine B (SRB) assay was used to estimate cell viability or growth via optical measurements.
(§3) From the measurements, the following values were determined: 1) the concentration of Compound 1 at which a tumor cell growth inhibition of 50% (relative to control) occurs (GI50), 2) the concentration of Compound 1 at which no growth occurs (total growth inhibition, TGI), and 3) the concentration of Compound 1 at which the […] (LC 50). […] FIG. 6 illustrates, graphically, tumor cell growth as a function of Compound 1 concentration of the scanned tumor cell lines.

HS 578T = assay: NCI SRB tumor cell growth assay, Breast Cancer; format: cell-based
Procedure: as §2, §3

HUVEC cells = assay: Induction of apoptosis, DNA fragmentation analysis; format: cell-based, human; settings: 16 hours
Procedure: (§4) T84, CaCo-2 and HUVEC cells, respectively, were grown in 100 mm dishes for 7-9 days, culture media for HUVEC was EGM-2 (Clonetics, BioWhitaker Co.), until they reached semi-confluency. Cell monolayers were then treated for 12 hours (CaCo-2 and T84) and 16 hours (HUVEC), respectively, at the indicated concentrations of N,N,-diethyl-8,8-dipropyl-2-azaspiro[4,5]decane-2-propanamine dimaleate (Compound 1) in culture media. Cells were collected by trypsinization and the apoptotic DNA was isolated from these cells following the instructions of the DNA fragmentation analysis kit (Boehringer Mannheim Corp., Indianapolis, Ind.). The apoptotic DNA was evaluated using 1.5% agarose gel electrophoresis followed by staining with ethidium bromide. M denotes the lane containing molecular weight markers of DNA.

CaCo-2 cells = assay: Induction of apoptosis, DNA fragmentation analysis; format: cell-based, human; settings: 12 hours
Procedure: as §4

T84 cells = assay: Induction of apoptosis, DNA fragmentation analysis; format: cell-based, human; settings: 12 hours
Procedure: as §4

SMILES | Dead Eggs ([1]; Dose Per Egg 100 μg) | Dead Eggs ([1]; Dose Per Egg 25 μg) | Dead Eggs ([1]; Dose Per Egg 50 μg) | Dead Eggs ([1]; Dose Per Egg 200 μg) | Dead Eggs ([1]; Dose Per Egg 400 μg) | caspase-3 activity (caspase-3) | caspase-9 activity (caspase-9) | Log10 LC50, MG_MID (Various Tumor Cell Lines) | Log10 TGI (HS 578T) | DNA laddering (apoptosis) (HUVEC cells) | DNA laddering (apoptosis) (CaCo-2 cells) | DNA laddering (apoptosis) (T84 cells)
O=C1CCC(N2C(=O)c3ccccc3C2=O)C(=O)N1 (stereo not shown) [Thalidomide, reference compound] | 0 |  |  |  |  |  |  |  |  |  |  | 
CCCC1(CCC)CCC2(CCN(CCCN(CC)CC)C2)CC1.O=C(O)/C=C\C(=O)O.O=C(O)/C=C\C(=O)O [Compound 1, N,N,-diethyl-8,8-dipropyl-2-azaspiro[4,5]decane-2-propanamine dimaleate] | 4 | 0 | 0 | 3 | 7 | activation | activation | −5.06 | −5.40 | formation of DNA laddering in a dose-dependent manner | formation of DNA laddering in a dose-dependent manner | formation of DNA laddering in a dose-dependent manner
